Measured values as given in PubChem BioAssay AID1963830 (Molecular Pharmacology Branch, DTP, NCI, 2024).

Test system: 922993-354-T-J3-PDC complex spheroid viability
Experiment: Anticancer human tumor 922993-354-T-J3-PDC patient-derived endometrial carcinoma cell line growth inhibition [POLQ]
Conditions: for IC50: curve of first compound; for viability, T/C: stronger effect = lower value
Summary of the method: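 Patient-derived tumour cells were co-cultured with HUVEC and mesenchymal stem cells as multicellular spheroids at 37 °C. They were treated with POLQ inhibitors (novobiocin, ART-558, RP6685) alone or combined with other agents. Top concentrations were at or near clinical Cmax (otherwise 10 microM; SN-38 at 1 microM), decreasing in half-log steps.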

[1] = second compound 0.0316 µM, first compound 0.0316 µM
[2] = second compound 0.0316 µM, first compound 0.1 µM
[3] = second compound 0.0316 µM, first compound 0.316 µM
[4] = second compound 0.0316 µM, first compound 1 µM
[5] = second compound 0.0316 µM, first compound 3.16 µM
[6] = second compound 0.0316 µM, first compound 10 µM
[7] = second compound 0.1 µM, first compound 0.0316 µM
[8] = second compound 0.1 µM, first compound 0.1 µM
[9] = second compound 0.1 µM, first compound 0.316 µM
[10] = second compound 0.1 µM, first compound 1 µM
[11] = second compound 0.1 µM, first compound 3.16 µM
[12] = second compound 0.1 µM, first compound 10 µM
[13] = second compound 0.316 µM, first compound 0.0316 µM
[14] = second compound 0.316 µM, first compound 0.1 µM
[15] = second compound 0.316 µM, first compound 0.316 µM
[16] = second compound 0.316 µM, first compound 1 µM
[17] = second compound 0.316 µM, first compound 3.16 µM
[18] = second compound 0.316 µM, first compound 10 µM
[19] = second compound 1 µM, first compound 0.0316 µM
[20] = second compound 1 µM, first compound 0.1 µM
[21] = second compound 1 µM, first compound 0.316 µM
[22] = second compound 1 µM, first compound 1 µM
[23] = second compound 1 µM, first compound 3.16 µM
[24] = second compound 1 µM, first compound 10 µM
[25] = second compound 3.16 µM, first compound 0.0316 µM
[26] = second compound 3.16 µM, first compound 0.1 µM
[27] = second compound 3.16 µM, first compound 0.316 µM
[28] = second compound 3.16 µM, first compound 1 µM
[29] = second compound 3.16 µM, first compound 3.16 µM
[30] = second compound 3.16 µM, first compound 10 µM
[31] = second compound 10 µM, first compound 0.0316 µM
[32] = second compound 10 µM, first compound 0.1 µM
[33] = second compound 10 µM, first compound 0.316 µM
[34] = second compound 10 µM, first compound 1 µM
[35] = second compound 10 µM, first compound 3.16 µM
[36] = second compound 10 µM, first compound 10 µM
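Also: spheroids exposed to the agents for one week.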
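For viability, T/C in this document: 100% = DMSO vehicle control wells.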

Nc1ccn(C2OC(CO)C(O)C2(F)F)c(=O)n1 (centres undefined) + Cc1cccc(N(C)C(=O)C2C(O)CCN2c2nc(C)cc(C(F)(F)F)c2C#N)c1
IC50 (second compound 0.0316 µM): < 0.0316 µM | IC50 (second compound 0.1 µM): < 0.0316 µM | IC50 (second compound 0.316 µM): < 0.0316 µM | IC50 (second compound 1 µM): < 0.0316 µM | IC50 (second compound 3.16 µM): < 0.0316 µM | IC50 (second compound 10 µM): < 0.0316 µM | viability, T/C [1]: 11.1% | viability, T/C [2]: 10.3% | viability, T/C [3]: 9.57% | viability, T/C [4]: 11.8% | viability, T/C [5]: 9.18% | viability, T/C [6]: 9.18% | viability, T/C [7]: 14.8% | viability, T/C [8]: 10.9% | viability, T/C [9]: 11.3% | viability, T/C [10]: 10.7% | viability, T/C [11]: 10.7% | viability, T/C [12]: 11% | viability, T/C [13]: 11.9% | viability, T/C [14]: 11.5% | viability, T/C [15]: 11.9% | viability, T/C [16]: 9.92% | viability, T/C [17]: 8.14% | viability, T/C [18]: 9.97% | viability, T/C [19]: 12.6% | viability, T/C [20]: 9.47% | viability, T/C [21]: 8.22% | viability, T/C [22]: 8.9% | viability, T/C [23]: 7.29% | viability, T/C [24]: 10.3% | viability, T/C [25]: 11.3% | viability, T/C [26]: 10.2% | viability, T/C [27]: 10.6% | viability, T/C [28]: 7.56% | viability, T/C [29]: 9.43% | viability, T/C [30]: 10.6% | viability, T/C [31]: 7.43% | viability, T/C [32]: 8.87% | viability, T/C [33]: 7.1% | viability, T/C [34]: 6.45% | viability, T/C [35]: 8.61% | viability, T/C [36]: 8.92%

CCCS(=O)(=O)Nc1ccc(F)c(C(=O)c2c[nH]c3ncc(-c4ccc(Cl)cc4)cc23)c1F + Cc1cccc(N(C)C(=O)C2C(O)CCN2c2nc(C)cc(C(F)(F)F)c2C#N)c1
IC50 (second compound 0.0316 µM): > 10 µM | IC50 (second compound 0.1 µM): > 10 µM | IC50 (second compound 0.316 µM): > 10 µM | IC50 (second compound 1 µM): > 10 µM | IC50 (second compound 3.16 µM): > 10 µM | IC50 (second compound 10 µM): > 10 µM | viability, T/C [1]: 103% | viability, T/C [2]: 99.5% | viability, T/C [3]: 103% | viability, T/C [4]: 98.1% | viability, T/C [5]: 106% | viability, T/C [6]: 97.5% | viability, T/C [7]: 101% | viability, T/C [8]: 102% | viability, T/C [9]: 103% | viability, T/C [10]: 100% | viability, T/C [11]: 102% | viability, T/C [12]: 90.1% | viability, T/C [13]: 104% | viability, T/C [14]: 101% | viability, T/C [15]: 105% | viability, T/C [16]: 104% | viability, T/C [17]: 103% | viability, T/C [18]: 95.8% | viability, T/C [19]: 102% | viability, T/C [20]: 99.8% | viability, T/C [21]: 100% | viability, T/C [22]: 103% | viability, T/C [23]: 105% | viability, T/C [24]: 95% | viability, T/C [25]: 102% | viability, T/C [26]: 103% | viability, T/C [27]: 101% | viability, T/C [28]: 97.7% | viability, T/C [29]: 107% | viability, T/C [30]: 94.5% | viability, T/C [31]: 98.6% | viability, T/C [32]: 103% | viability, T/C [33]: 104% | viability, T/C [34]: 100% | viability, T/C [35]: 108% | viability, T/C [36]: 93.2%
